Columns and labels:
Type in all cases: in vivo
Alopecurus myosuroides = test: greenhouse post-emergence treatment, ALOMY; details: Alopecurus myosuroides, 480 h, 20 DAT, ALOMY
Procedure, shortened: (§1)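 Pot trial in loamy sand with about 3.0% humus; plants sown in place or transplanted as seedlings a few days before treatment, kept at 10-25° C or 20-35° C by species, water as solvent. Damage scored 0 (none) to 100 (full destruction) over 2 to 4 weeks; combination expectation by Colby, E=X+Y−(X·Y/100).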

Echinocloa crus-galli = test: greenhouse post-emergence treatment, ECHCG; details: ECHCG, 20 DAT
Procedure, shortened: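 Each species was grown separately and treated once it reached 3 to 15 cm, using actives suspended or emulsified in water. Plants were kept at 10-25° C. or 20-35° C., depending on species. Damage is a 0–100 rating taken during 2 to 4 weeks.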

Digitaria sanguinalis = test: greenhouse post-emergence treatment, DIGSA; details: Digitaria sanguinalis, 480 h, 20 DAT, DIGSA
Procedure, shortened: as §1

Which results are given for `CC(C)N1C(=O)c2ccccc2NS1(=O)=O` [bentazon]?
inhibition at 120 g/ha (Alopecurus myosuroides; 120 gai/ha (SL 480 g/l), Table X3, read-out: % activity, solo application): 0%; inhibition at 240 g/ha (Alopecurus myosuroides; 240 gai/ha (SL 480 g/l), Table X3, read-out: % activity, solo application): 0%; pest or weed control at 60 g/ha (Alopecurus myosuroides; bentazon solo 60 gai/ha): 0%; pest or weed control at 240 g/ha (Alopecurus myosuroides; bentazon solo 240 gai/ha): 0%; % activity (Echinocloa crus-galli; bentazon solo 30 gai/ha): 0%; % activity (Echinocloa crus-galli; bentazon solo 60 gai/ha): 0%; % activity (Echinocloa crus-galli; bentazon solo 120 gai/ha): 0%; % activity (Echinocloa crus-galli; bentazon solo 240 gai/ha): 20%; inhibition at 60 g/ha (Echinocloa crus-galli; Echinochloa crus-galli, 480 h, 60 gai/ha (SL 480 g/l), Table X3, read-out: % activity, solo application): 0%; inhibition at 120 g/ha (Echinocloa crus-galli; Echinochloa crus-galli, 480 h, 120 gai/ha (SL 480 g/l), Table X3, read-out: % activity, solo application): 0%; inhibition at 240 g/ha (Echinocloa crus-galli; Echinochloa crus-galli, 480 h, 240 gai/ha (SL 480 g/l), Table X3, read-out: % activity, solo application): 20%; inhibition at 30 g/ha (Digitaria sanguinalis; 30 gai/ha (SL 480 g/l), Table X3, read-out: % activity, solo application): 0%; inhibition at 60 g/ha (Digitaria sanguinalis; 60 gai/ha (SL 480 g/l), Table X3, read-out: % activity, solo application): 0%; pest or weed control at 30 g/ha (Digitaria sanguinalis; bentazon solo 30 gai/ha): 0%; pest or weed control at 60 g/ha (Digitaria sanguinalis; bentazon solo 60 gai/ha): 0%; pest or weed control at 120 g/ha (Digitaria sanguinalis; bentazon solo 120 gai/ha): 0%; pest or weed control at 240 g/ha (Digitaria sanguinalis; bentazon solo 240 gai/ha): 30%

Source: US10966426B2, “Herbicidal compositions comprising phenylpyrimidines” (BASF SE, priority 2016, dated 2021)
